Measured values reported in patent US9029337B2, “Modulation of factor 7 expression” (Isis Pharmaceuticals, Inc., priority 2007, dated 2015).
Strand notation (5' to 3'): a small letter for the sugar, then the base; units joined by * are phosphorothioate-linked, units joined directly phosphodiester-linked; [ ] holds rarer units or linkages, { } end groups; capitals alone tell only the bases. e = 2'-O-(2-methoxyethyl) (MOE); [5mC] = 5-methylcytosine; d = 2'-deoxy (DNA)

System: human Factor 7 mRNA
Assay: Antisense inhibition of human Factor 7 with short (14-mer) oligonucleotides in HepB3 cells, electroporation 1,000 nM
Type: cell-based
Details: electroporation, 1,000 nM antisense oligonucleotide, approximately 24 hours, Factor 7 mRNA relative to untreated control cells
Summary of the method: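 14-mer 2-10-2 MOE gapmers (full phosphorothioate, 5-methyl-C) electroporated at 1,000 nM into HepB3 cells at 20,000 cells/well. After ~24 h, Factor 7 mRNA by real-time RT-PCR, normalized to RiboGreen total RNA. Reported as % inhibition relative to untreated cells.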

Substance	% Inhibition [%]
435754 (antisense eT*e[5mC]*dA*dG*d[5mC]*dA*dA*dG*dA*dG*dT*dG*e[5mC]*eA) [compound 435754]	16
435490 (antisense e[5mC]*e[5mC]*dT*dG*dG*dT*dG*dT*dA*d[5mC]*dA*d[5mC]*e[5mC]*e[5mC]) [compound 435490]	49
435801 (antisense e[5mC]*eG*dG*dT*dT*dG*dG*d[5mC]*d[5mC]*dA*dG*dG*e[5mC]*e[5mC]) [compound 435801]	38
435791 (antisense eA*eT*dG*dA*dG*dA*dA*dA*dT*dG*d[5mC]*dT*eT*eT) [compound 435791]	0
435720 (antisense eA*eG*dG*d[5mC]*dT*d[5mC]*dA*dG*d[5mC]*dT*dG*dG*eG*e[5mC]) [compound 435720]	16
435658 (antisense eT*e[5mC]*dA*d[5mC]*dT*dG*d[5mC]*dA*dG*dT*dA*d[5mC]*eT*eG) [compound 435658]	60
435745 (antisense eG*eG*dG*dA*dG*d[5mC]*dT*dA*d[5mC]*dA*dG*d[5mC]*e[5mC]*eT) [compound 435745]	0
435842 (antisense eA*eT*dT*dT*d[5mC]*d[5mC]*d[5mC]*dA*dT*dT*dG*dG*e[5mC]*eA) [compound 435842]	0
435690 (antisense eG*eT*d[5mC]*d[5mC]*dG*dT*dT*d[5mC]*dG*dG*dG*d[5mC]*eA*eG) [compound 435690]	55
435744 (antisense e[5mC]*eT*dA*d[5mC]*dA*dG*d[5mC]*d[5mC]*dT*d[5mC]*dA*dA*eA*e[5mC]) [compound 435744]	19
435803 (antisense eG*eA*dG*dA*dA*dT*dT*dG*d[5mC]*d[5mC]*d[5mC]*dA*eG*eG) [compound 435803]	0
435484 (antisense e[5mC]*e[5mC]*dT*dG*dG*dG*dT*d[5mC]*dA*dT*d[5mC]*dA*eG*e[5mC]) [compound 435484]	45
435694 (antisense e[5mC]*eT*dG*d[5mC]*dA*dG*dG*d[5mC]*dA*dG*dT*d[5mC]*e[5mC]*eT) [compound 435694]	39
435684 (antisense eA*eG*d[5mC]*dA*dG*d[5mC]*dG*d[5mC]*dG*dA*dT*dG*eT*e[5mC]) [compound 435684]	56
435657 (antisense eG*e[5mC]*dA*dG*dT*dA*d[5mC]*dT*dG*d[5mC]*dT*d[5mC]*eA*e[5mC]) [compound 435657]	69
435646 (antisense eT*eA*dG*dG*dA*d[5mC]*dT*dG*dG*dA*dG*d[5mC]*eT*eG) [compound 435646]	13
435742 (antisense eA*eT*dG*dT*dG*dA*dG*dG*dG*dT*dT*d[5mC]*eA*eT) [compound 435742]	11
435722 (antisense eT*eG*dG*dG*d[5mC]*dT*dT*dG*dG*d[5mC]*dT*dG*eA*eA) [compound 435722]	50
435746 (antisense eA*eT*dT*dG*dA*d[5mC]*dA*dA*dG*dG*dG*d[5mC]*eT*eG) [compound 435746]	32
435721 (antisense eT*eA*dA*dG*dG*dA*dG*dG*d[5mC]*dT*d[5mC]*dA*eG*e[5mC]) [compound 435721]	12

Substance	% Inhibition [%]
435796 (antisense eT*eG*dA*d[5mC]*d[5mC]*dA*d[5mC]*dA*d[5mC]*dA*dT*dT*eT*e[5mC]) [compound 435796]	30
435645 (antisense eG*eG*dA*dG*d[5mC]*dT*dG*dG*dT*d[5mC]*d[5mC]*dT*eT*eG) [compound 435645]	44
435844 (antisense eT*eG*dG*d[5mC]*d[5mC]*dA*dG*dT*dG*dG*d[5mC]*d[5mC]*eT*e[5mC]) [compound 435844]	30
435782 (antisense e[5mC]*eG*dT*dG*d[5mC]*dG*d[5mC]*dT*d[5mC]*dA*dG*d[5mC]*eT*e[5mC]) [compound 435782]	36
435647 (antisense eA*eG*dA*dT*dA*dT*dA*dG*dG*dA*d[5mC]*dT*eG*eG) [compound 435647]	0
435716 (antisense eT*eT*dT*dT*dG*d[5mC]*dA*dG*d[5mC]*d[5mC]*dA*d[5mC]*eT*e[5mC]) [compound 435716]	22
435634 (antisense eT*eG*dA*dA*dA*dT*d[5mC]*dT*d[5mC]*dT*dG*d[5mC]*eA*eG) [compound 435634]	5
435846 (antisense eT*eG*dG*dA*dG*dA*dG*dA*d[5mC]*d[5mC]*dA*dA*eT*eG) [compound 435846]	7
435775 (antisense eT*e[5mC]*dT*dG*dG*dA*dA*dG*dG*dA*dA*d[5mC]*eA*eG) [compound 435775]	25
435790 (antisense eA*eT*dG*dA*d[5mC]*d[5mC]*dA*dT*d[5mC]*d[5mC]*dT*d[5mC]*eA*eA) [compound 435790]	1
435774 (antisense eG*eT*d[5mC]*d[5mC]*d[5mC]*dA*dG*dG*dG*dA*dA*dG*eG*e[5mC]) [compound 435774]	17
435743 (antisense eG*e[5mC]*d[5mC]*dT*d[5mC]*dA*dA*dA*d[5mC]*dA*dT*d[5mC]*eT*eA) [compound 435743]	40
435649 (antisense eA*eG*dG*d[5mC]*dA*dG*dA*dA*dG*d[5mC]*dA*dG*eA*eT) [compound 435649]	21
435655 (antisense eA*e[5mC]*dA*dG*d[5mC]*d[5mC]*dG*d[5mC]*d[5mC]*dG*dT*dT*e[5mC]*eT) [compound 435655]	49
435481 (antisense eG*eG*dG*dT*d[5mC]*dA*dT*d[5mC]*dA*dG*d[5mC]*d[5mC]*eG*eG) [compound 435481]	50
435828 (antisense eG*eA*d[5mC]*d[5mC]*dT*dG*d[5mC]*d[5mC]*d[5mC]*dA*dT*dT*eT*eT) [compound 435828]	0
435683 (antisense eA*eT*dG*dT*d[5mC]*dG*dT*dG*dG*dT*dT*dG*eG*eT) [compound 435683]	3
435794 (antisense eG*eA*dG*dG*dT*dA*d[5mC]*dA*d[5mC]*dA*dG*dG*e[5mC]*eT) [compound 435794]	26
435850 (antisense e[5mC]*eT*dT*dG*dG*d[5mC]*d[5mC]*dA*dG*dT*dG*dT*eG*eG) [compound 435850]	15
435495 (antisense eG*eA*dG*dA*d[5mC]*d[5mC]*d[5mC]*dT*dG*dG*dT*dG*eT*eA) [compound 435495]	27

Substance	% Inhibition [%]
435778 (antisense eG*e[5mC]*dT*dA*d[5mC]*dT*dG*dG*dG*d[5mC]*d[5mC]*dA*e[5mC]*eG) [compound 435778]	49
435498 (antisense eT*eG*dG*dG*dA*dG*dA*d[5mC]*d[5mC]*d[5mC]*dT*dG*eG*eT) [compound 435498]	37
435734 (antisense eA*eT*dG*d[5mC]*dT*dT*d[5mC]*dT*dG*dA*dA*dT*eT*eG) [compound 435734]	16
435788 (antisense e[5mC]*e[5mC]*dT*dG*dT*dG*dA*dG*dT*dG*dT*dG*eA*eG) [compound 435788]	20
435835 (antisense eT*eT*dA*dT*dT*dT*dG*dG*dG*d[5mC]*dA*dT*eG*eG) [compound 435835]	7
435482 (antisense eT*eG*dG*dG*dT*d[5mC]*dA*dT*d[5mC]*dA*dG*d[5mC]*e[5mC]*eG) [compound 435482]	62
435789 (antisense e[5mC]*eA*dT*dG*dT*dT*dA*dG*d[5mC]*d[5mC]*dT*dT*eT*eG) [compound 435789]	3
435741 (antisense eA*eG*dG*dG*dT*dT*d[5mC]*dA*dT*dT*dT*d[5mC]*eA*eG) [compound 435741]	6
435819 (antisense eT*eT*dT*dG*dT*d[5mC]*d[5mC]*dA*dG*dT*dA*dA*eG*eA) [compound 435819]	1
435830 (antisense eT*eG*dA*dT*dT*dT*dT*dG*d[5mC]*dA*dA*dA*eG*eA) [compound 435830]	0
435637 (antisense eT*eG*dA*dA*dG*d[5mC]*d[5mC]*d[5mC]*dA*dA*dG*d[5mC]*eA*eG) [compound 435637]	11
435804 (antisense e[5mC]*eA*dG*dG*dG*dA*d[5mC]*dT*d[5mC]*dT*d[5mC]*dA*eG*e[5mC]) [compound 435804]	26
435671 (antisense eT*e[5mC]*dA*d[5mC]*d[5mC]*dA*dA*d[5mC]*dA*dA*d[5mC]*dA*eG*eG) [compound 435671]	28
435810 (antisense e[5mC]*eT*dG*dA*dG*dG*dG*dA*dA*dT*dG*dT*eT*eG) [compound 435810]	1
435681 (antisense eA*eT*dG*dA*d[5mC]*d[5mC]*dT*dG*d[5mC]*dG*d[5mC]*d[5mC]*eA*e[5mC]) [compound 435681]	40
435667 (antisense eA*eA*dT*dT*d[5mC]*dG*dG*d[5mC]*d[5mC]*dT*dT*dG*eG*eG) [compound 435667]	16
435687 (antisense eA*eT*dG*dG*dT*d[5mC]*dA*dG*dT*dG*dA*dG*eG*eA) [compound 435687]	7
435503 (antisense eT*eG*dT*dA*d[5mC]*dT*dG*dG*dG*dA*dG*dA*e[5mC]*e[5mC]) [compound 435503]	17
435728 (antisense eA*e[5mC]*dA*d[5mC]*dA*dT*dG*dG*dA*dG*dT*d[5mC]*eA*eG) [compound 435728]	16
